Measured values published in PMC5404542, “In Vitro and In Vivo Antifungal Profile of a Novel and Long-Acting Inhaled Azole, PC945, on Aspergillus fumigatus Infection” (Antimicrobial Agents and Chemotherapy, 2017).
Values after ≈ are worked out from the molar mass of the structure shown.

Tests used:
[1] = Systemic exposure after topical/intranasal treatment; type: in vivo; conditions: data not shown
[2] = Plasma protein binding; type: in vitro ADME
[3] = system: Candida krusei (ATCC 6258); experiment: MIC, CLSI; type: cell-based; conditions: Pichia kudriavzevii, ATCC6258; 1 strain, CLSI; read-out: MIC
[4] = Precipitation in EUCAST medium; type: physicochemical

SMILES: Cc1cc(N2CCN(c3ccc(C(=O)Nc4ccc(F)cc4)cc3)CC2)ccc1OC[C@@H]1CO[C@@](Cn2cncn2)(c2ccc(F)cc2F)C1 [PC945, 4-[4-(4-{[(3R,5R)-5-(2,4-difluorophenyl)-5-(1H-1,2,4-triazol-1-ylmethyl)oxolan-3-yl]methoxy}-3-methylphenyl)piperazin-1-yl]-N-(4-fluorophenyl)benzamide]
- systemic exposure [1]: very low systemic exposure
- plasma protein binding [2]: high levels of plasma protein binding
- MIC [3]: 0.125 µg/mL (≈ 0.183 µM)
- concentration at which compound precipitated in EUCAST medium [4]: > 4000 ng/mL
